Assay results taken from patent US20120029187A1, “HALOALKYLSULFONANILIDE DERIVATIVE” (Nissan Chemical Industries, Ltd., priority 2009, published 2012).

What was measured:
Type in all cases: in vivo
barnyardgrass [1] = experiment: Test Example 1: herbicidal effects in preemergence treatment under submerged conditions; details: dose 2.52 g/a
Summary of the method: (§1)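 Alluvial soil was flooded to 4 cm, sown with barnyardgrass, bulrush and ducksalad, and planted with 2.5-leaf rice seedlings. On the seeding day, water-diluted emulsifiable concentrates were applied to the water surface at set doses (g/a). After three weeks in a 25 to 30° C. greenhouse, mortality was scored 0–5.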

bulrush [2] = experiment: as above; details: dose 2.52 g/a
Summary of the method: as §1

ducksalad [3] = experiment: as above; details: dose 2.52 g/a
Summary of the method: as §1

barnyardgrass [4] = experiment: Test Example 2: herbicidal effects during the vegetation period under submerged conditions; details: treatment during the vegetation period under submerged conditions; dose 2.52 g/a
Summary of the method: (§2)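 Barnyardgrass, bulrush and ducksalad were co-sown in alluvial soil flooded to 4 cm and grown in a greenhouse at 25 to 30° C. At the 1- or 2-leaf stage, water-diluted emulsifiable concentrates went onto the water surface at set doses (g/a). Herbicidal effect was scored three weeks later on a graded scale.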

bulrush [5] = experiment: as above; details: treatment during the vegetation period under submerged conditions; dose 2.52 g/a
Summary of the method: as §2

ducksalad [6] = experiment: as above; details: treatment during the vegetation period under submerged conditions; dose 2.52 g/a
Summary of the method: as §2

Italian ryegrass [7] = experiment: Test Example 3: herbicidal effects in soil treatment; details: dose 6.3 g/a
Summary of the method: (§3)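 Seeds were sown in sterilized diluvial soil and covered with about 1.5 cm of soil. Compounds, formulated as emulsifiable concentrates and diluted with water, were sprayed evenly over the soil surface at set doses in g/a. Herbicidal effect was scored on a rating scale three weeks later.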

barnyardgrass [8] = experiment: as above; details: dose 6.3 g/a
Summary of the method: as §3

common chickweed [9] = experiment: as above; details: dose 6.3 g/a
Summary of the method: as §3

common lambsquater [10] = experiment: as above; details: dose 6.3 g/a
Summary of the method: as §3

common ragweed [11] = experiment: as above; details: dose 6.3 g/a
Summary of the method: as §3

giant foxtail [12] = experiment: as above; details: dose 6.3 g/a
Summary of the method: as §3

large crabgrass [13] = experiment: as above; details: dose 6.3 g/a
Summary of the method: as §3

posumbu knotweed [14] = experiment: as above; details: dose 6.3 g/a
Summary of the method: as §3

redroot pigweed [15] = experiment: as above; details: dose 6.3 g/a
Summary of the method: as §3

velvetleaf [16] = experiment: as above; details: dose 6.3 g/a
Summary of the method: as §3

water foxtail [17] = experiment: as above; details: dose 6.3 g/a
Summary of the method: as §3

wild oat [18] = experiment: as above; details: dose 6.3 g/a
Summary of the method: as §3

Italian ryegrass [19] = experiment: Test Example 4: herbicidal effect in foliage treatment; details: dose 6.3 g/a, three weeks after application
Summary of the method: (§4)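 Seeds sown in sterilized diluvial soil under ~1.5 cm soil cover and grown 14 days in a greenhouse at 25 to 30° C. Emulsifiable concentrates diluted with water were then sprayed uniformly on foliage at predetermined doses (g/a). Herbicidal effect was scored three weeks after application on a graded evaluation scale.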

barnyardgrass [20] = experiment: as above; details: dose 6.3 g/a, three weeks after application
Summary of the method: as §4

beadstraw = experiment: as above; details: dose 6.3 g/a, three weeks after application
Summary of the method: as §4

common chickweed [21] = experiment: as above; details: dose 6.3 g/a, three weeks after application
Summary of the method: as §4

common lambsquater [22] = experiment: as above; details: dose 6.3 g/a, three weeks after application
Summary of the method: as §4

common ragweed [23] = experiment: as above; details: dose 6.3 g/a, three weeks after application
Summary of the method: as §4

giant foxtail [24] = experiment: as above; details: dose 6.3 g/a, three weeks after application
Summary of the method: as §4

large crabgrass [25] = experiment: as above; details: dose 6.3 g/a, three weeks after application
Summary of the method: as §4

posumbu knotweed [26] = experiment: as above; details: dose 6.3 g/a, three weeks after application
Summary of the method: as §4

redroot pigweed [27] = experiment: as above; details: dose 6.3 g/a, three weeks after application
Summary of the method: as §4

velvetleaf [28] = experiment: as above; details: dose 6.3 g/a, three weeks after application
Summary of the method: as §4

water foxtail [29] = experiment: as above; details: dose 6.3 g/a, three weeks after application
Summary of the method: as §4

wild oat [30] = experiment: as above; details: dose 6.3 g/a, three weeks after application
Summary of the method: as §4

| Structure (SMILES) | A: barnyardgrass, herbicidal effect (evaluation scale 0-5) (barnyardgrass [1]) | B: bulrush, herbicidal effect (evaluation scale 0-5) (bulrush [2]) | C: ducksalad, herbicidal effect (evaluation scale 0-5) (ducksalad [3]) | B: bulrush, herbicidal effect (evaluation scale 0-5) (bulrush [5]) | C: ducksalad, herbicidal effect (evaluation scale 0-5) (ducksalad [6]) | H: Italian ryegrass, herbicidal effect (evaluation scale 0-5) (Italian ryegrass [7]) | A: barnyardgrass, herbicidal effect (evaluation scale 0-5) (barnyardgrass [8]) | N: common chickweed, herbicidal effect (evaluation scale 0-5) (common chickweed [9]) | L: common lambsquater, herbicidal effect (evaluation scale 0-5) (common lambsquater [10]) | J: common ragweed, herbicidal effect (evaluation scale 0-5) (common ragweed [11]) | E: giant foxtail, herbicidal effect (evaluation scale 0-5) (giant foxtail [12]) | D: large crabgrass, herbicidal effect (evaluation scale 0-5) (large crabgrass [13]) | M: posumbu knotweed, herbicidal effect (evaluation scale 0-5) (posumbu knotweed [14]) | K: redroot pigweed, herbicidal effect (evaluation scale 0-5) (redroot pigweed [15]) | I: velvetleaf, herbicidal effect (evaluation scale 0-5) (velvetleaf [16]) | G: water foxtail, herbicidal effect (evaluation scale 0-5) (water foxtail [17]) | F: wild oat, herbicidal effect (evaluation scale 0-5) (wild oat [18]) | H: Italian ryegrass, herbicidal effect (Italian ryegrass [19]) | A: barnyardgrass, herbicidal effect (barnyardgrass [20]) | O: beadstraw, herbicidal effect (beadstraw) | also measured |
| --- | --- | --- | --- | --- | --- | --- | --- | --- | --- | --- | --- | --- | --- | --- | --- | --- | --- | --- | --- | --- | --- |
| O=C1COCCN1Cc1ccccc1NS(=O)(=O)C(F)(F)F [Compound I-1, 4-(2-trifluoromethanesulfonylaminobenzyl)-1,4-oxazinan-3-one] | 5 (mortality of 90% or above (nearly complete death)) | 5 (mortality of 90% or above (nearly complete death)) | 5 (mortality of 90% or above (nearly complete death)) | 5 (mortality of 90% or above (nearly complete death)) | 5 (mortality of 90% or above (nearly complete death)) | 5 (mortality of 90% or above (nearly complete death)) | 5 (mortality of 90% or above (nearly complete death)) | 5 (mortality of 90% or above (nearly complete death)) | 5 (mortality of 90% or above (nearly complete death)) | 4 (mortality of at least 70% and less than 90%) | 5 (mortality of 90% or above (nearly complete death)) | 5 (mortality of 90% or above (nearly complete death)) | 5 (mortality of 90% or above (nearly complete death)) | 5 (mortality of 90% or above (nearly complete death)) | 5 (mortality of 90% or above (nearly complete death)) | 5 (mortality of 90% or above (nearly complete death)) | 4 (mortality of at least 70% and less than 90%) | 5 (mortality of 90% or above (nearly complete death)) | 5 (mortality of 90% or above (nearly complete death)) | 5 (mortality of 90% or above (nearly complete death)) | A: barnyardgrass, herbicidal effect (evaluation scale 0-5) (barnyardgrass [4]): 5 (mortality of 90% or above (nearly complete death)); N: common chickweed, herbicidal effect (common chickweed [21]): 4 (mortality of at least 70% and less than 90%); L: common lambsquater, herbicidal effect (common lambsquater [22]): 5 (mortality of 90% or above (nearly complete death)); J: common ragweed, herbicidal effect (common ragweed [23]): 4 (mortality of at least 70% and less than 90%); E: giant foxtail, herbicidal effect (giant foxtail [24]): 5 (mortality of 90% or above (nearly complete death)); D: large crabgrass, herbicidal effect (large crabgrass [25]): 5 (mortality of 90% or above (nearly complete death)); M: posumbu knotweed, herbicidal effect (posumbu knotweed [26]): 5 (mortality of 90% or above (nearly complete death)); K: redroot pigweed, herbicidal effect (redroot pigweed [27]): 3 (mortality of at least 40% and less than 70%); I: velvetleaf, herbicidal effect (velvetleaf [28]): 5 (mortality of 90% or above (nearly complete death)); G: water foxtail, herbicidal effect (water foxtail [29]): 5 (mortality of 90% or above (nearly complete death)); F: wild oat, herbicidal effect (wild oat [30]): 3 (mortality of at least 40% and less than 70%) |
| O=C1CSCCN1Cc1ccccc1NS(=O)(=O)C(F)(F)F [Compound I-17, 4-(2-trifluoromethanesulfonylaminobenzyl)-1,4-thiazinan-3-one] | 4 (mortality of at least 70% and less than 90%) | 5 (mortality of 90% or above (nearly complete death)) | 5 (mortality of 90% or above (nearly complete death)) | 5 (mortality of 90% or above (nearly complete death)) | 4 (mortality of at least 70% and less than 90%) | 3 (mortality of at least 40% and less than 70%) | 5 (mortality of 90% or above (nearly complete death)) | 5 (mortality of 90% or above (nearly complete death)) | 5 (mortality of 90% or above (nearly complete death)) | 4 (mortality of at least 70% and less than 90%) | 3 (mortality of at least 40% and less than 70%) | 5 (mortality of 90% or above (nearly complete death)) | 2 (mortality of at least 20% and less than 40%) | 3 (mortality of at least 40% and less than 70%) | 1 (mortality of at least 5% and less than 20%) | 5 (mortality of 90% or above (nearly complete death)) | 0 (mortality of less than 5% (almost ineffective)) | 3 (mortality of at least 40% and less than 70%) | 4 (mortality of at least 70% and less than 90%) | 5 (mortality of 90% or above (nearly complete death)) | N: common chickweed, herbicidal effect (common chickweed [21]): 4 (mortality of at least 70% and less than 90%); L: common lambsquater, herbicidal effect (common lambsquater [22]): 5 (mortality of 90% or above (nearly complete death)); J: common ragweed, herbicidal effect (common ragweed [23]): 4 (mortality of at least 70% and less than 90%); E: giant foxtail, herbicidal effect (giant foxtail [24]): 3 (mortality of at least 40% and less than 70%); D: large crabgrass, herbicidal effect (large crabgrass [25]): 5 (mortality of 90% or above (nearly complete death)); M: posumbu knotweed, herbicidal effect (posumbu knotweed [26]): 3 (mortality of at least 40% and less than 70%); K: redroot pigweed, herbicidal effect (redroot pigweed [27]): 4 (mortality of at least 70% and less than 90%); I: velvetleaf, herbicidal effect (velvetleaf [28]): 4 (mortality of at least 70% and less than 90%); G: water foxtail, herbicidal effect (water foxtail [29]): 5 (mortality of 90% or above (nearly complete death)); F: wild oat, herbicidal effect (wild oat [30]): 1 (mortality of at least 5% and less than 20%) |
